From ChEMBL document CHEMBL6078724, “Discovery of the first examples of right open reading frame kinase 2 (RIOK2) molecular glue degraders” (Eur J Med Chem, 2025) come the findings set out here.

Calls of active or inactive are those of the source. The calls are words filed in the database; no cut-off is given here.

The target in data set [1] is T1, E3 ubiquitin-protein ligase RNF126/Serine/threonine-protein kinase RIO2 (Homo sapiens, UniProt Q9BVS4+Q9BV68). Briefly: Molecular glue degradation activity at RNF126/RIOK2 in human HeLa cells assessed as induction protein degradation by immunoblot analysis relative to control. The class given is cell-based. (In general: Immunoblotting shows a protein as a band on a membrane.)
Target sequence in this assay (Q9BV68 2-311 partner limits assumed): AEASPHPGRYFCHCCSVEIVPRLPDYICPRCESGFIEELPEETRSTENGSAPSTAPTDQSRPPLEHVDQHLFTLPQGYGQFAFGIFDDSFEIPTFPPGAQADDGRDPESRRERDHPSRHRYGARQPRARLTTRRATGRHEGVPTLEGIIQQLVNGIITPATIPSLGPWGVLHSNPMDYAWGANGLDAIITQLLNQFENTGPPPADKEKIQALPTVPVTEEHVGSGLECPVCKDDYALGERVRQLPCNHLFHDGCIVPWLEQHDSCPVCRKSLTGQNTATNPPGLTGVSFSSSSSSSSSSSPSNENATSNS
Target sequence in this assay (Q9BVS4 whole entry): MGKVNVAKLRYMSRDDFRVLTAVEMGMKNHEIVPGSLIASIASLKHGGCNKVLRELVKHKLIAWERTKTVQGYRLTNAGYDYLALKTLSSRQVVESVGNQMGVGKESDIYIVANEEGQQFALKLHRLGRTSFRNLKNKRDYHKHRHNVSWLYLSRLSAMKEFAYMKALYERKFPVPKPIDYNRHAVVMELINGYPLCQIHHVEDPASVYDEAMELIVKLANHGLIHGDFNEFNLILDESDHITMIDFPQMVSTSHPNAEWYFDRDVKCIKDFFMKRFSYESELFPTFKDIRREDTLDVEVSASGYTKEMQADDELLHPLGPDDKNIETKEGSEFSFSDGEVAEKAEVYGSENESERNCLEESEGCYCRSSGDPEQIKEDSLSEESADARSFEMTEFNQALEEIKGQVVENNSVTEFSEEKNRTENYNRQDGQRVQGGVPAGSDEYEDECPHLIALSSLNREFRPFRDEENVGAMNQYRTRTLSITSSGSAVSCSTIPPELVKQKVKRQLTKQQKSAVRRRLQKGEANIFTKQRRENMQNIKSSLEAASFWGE

The nature of data set [2]: Cmax in Sprague-Dawley rat at 10 mg/kg, ip measured for 24 hrs. Format: ADME, organism-based. The settings on record: in vivo.
The subject of data set [3] is MOLT-4. Briefly: Induction of cell cycle arrest in human MOLT-4 cells assessed as accumulation at G2/M phase at 900 nM incubated for 24 hrs by PI staining based flow cytometry relative to control. The class given is functional.
In data set [4] the target is T1, E3 ubiquitin-protein ligase RNF126/Serine/threonine-protein kinase RIO2. Briefly: Molecular glue degradation activity at RNF126/RIOK2 in human K562 cells assessed as induction protein degradation by immunoblot analysis. Format: cell-based.
Target sequence in this assay (Q9BVS4 whole entry): as above
Target sequence in this assay (Q9BV68 whole entry): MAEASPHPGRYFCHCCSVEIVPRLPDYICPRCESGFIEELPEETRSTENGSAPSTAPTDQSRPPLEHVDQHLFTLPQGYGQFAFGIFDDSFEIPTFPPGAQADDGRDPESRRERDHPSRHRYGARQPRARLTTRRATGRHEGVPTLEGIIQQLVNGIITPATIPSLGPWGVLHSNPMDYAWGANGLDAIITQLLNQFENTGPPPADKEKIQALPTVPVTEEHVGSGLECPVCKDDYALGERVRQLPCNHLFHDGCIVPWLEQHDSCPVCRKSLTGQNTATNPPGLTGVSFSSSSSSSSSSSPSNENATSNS
For data set [5] the target is unchanged. Briefly: Molecular glue degradation activity at RNF126/RIOK2 in human HL-60 cells assessed as induction protein degradation by immunoblot analysis relative to control. The class given is cell-based.
Target sequence in this assay (Q9BV68 2-311 partner limits assumed): as the sequence (Q9BV68 2-311 partner limits assumed) above
Target sequence in this assay (Q9BVS4 whole entry): as the sequence (Q9BVS4 whole entry) above
The subject of data set [6] is A549. The data set is described as follows: Antiproliferative activity against human A549 cells incubated for 72 hrs by CCK8 assay. Format: functional, cell-based. As to conditions: A549, 72 h. For orientation: Formazan colour is commonly taken as a measure of viable cells.
The target in data set [7] is T1, E3 ubiquitin-protein ligase RNF126/Serine/threonine-protein kinase RIO2. Briefly: Molecular glue degradation activity at RNF126/RIOK2 in human MOLT-4 cells assessed as induction protein degradation at 1 uM incubated for 12 hrs by immunoblot analysis. Format: cell-based.
Target sequence in this assay (Q9BV68 2-311 partner limits assumed): as the sequence (Q9BV68 2-311 partner limits assumed) above
Target sequence in this assay (Q9BVS4 whole entry): as the sequence (Q9BVS4 whole entry) above
Data set [8] has the same target. The data set is described as follows: Molecular glue degradation activity at RNF126/RIOK2 in human HeLa cells assessed as induction protein degradation by immunoblot analysis. Format: cell-based.
Target sequence in this assay (Q9BVS4 whole entry): as above
Target sequence in this assay (Q9BV68 whole entry): as the sequence (Q9BV68 whole entry) above
Data set [9] can be described thus: Oral bioavailability in Sprague-Dawley rat at 10 mg/kg measured for 24 hrs. Format: ADME, organism-based. The settings on record: in vivo.
The target of data set [10] is T1, E3 ubiquitin-protein ligase RNF126/Serine/threonine-protein kinase RIO2. Briefly: Molecular glue degradation activity at RNF126/RIOK2 in human MOLT-4 cells assessed as decrease in mTOR level at 500 nM incubated for 12 hrs by immunoblot analysis. The class given is cell-based.
Target sequence in this assay (Q9BV68 2-311 partner limits assumed): as the sequence (Q9BV68 2-311 partner limits assumed) above
Target sequence in this assay (Q9BVS4 whole entry): as the sequence (Q9BVS4 whole entry) above
Data set [11] relates to K562. The data set is described as follows: Antiproliferative activity against human K562 cells incubated for 72 hrs by CCK8 assay. The class given is functional, cell-based. As to conditions: K562, 72 h.
Data set [12] in a line: Antiproliferative activity against HEK293 cells incubated for 72 hrs by CCK8 assay. The class given is toxicity, cell-based. The settings on record: human.

A word on the Emax: it is the maximal effect, on the per cent scale that the assay sets. As a reminder, the Cmax is the maximum level reached in the sampled fluid or tissue. A word on the DC50: it is the midpoint of the concentration-degradation curve. As a reminder, the IC50 is the midpoint of a concentration-inhibition curve. High values mean a need for much substance, low ones inhibition by little substance. By bioavailability is commonly meant the share of a dose that reaches the circulation, judged against a reference dose that is usually intravenous. A high value points to good availability.

With `COc1ccc(-c2ccc3[nH]c(=O)c4nnn(-c5ccc(N6CCN(C(=O)/C=C/C(=O)c7ccc(F)cc7)CC6)c(C(F)(F)F)c5)c4c3c2)cn1`, the Emax came to 50.3% in [1] and 74.6% in [5]. The highest concentration (Cmax) in data set [2] came to 0.0906 µg/mL. Besides, the Activity in [3] turned out to be 39.6%. Besides, the values for the DC50 in data set [4] and in data set [8] were greater than 10 µM and 8.7 µM, respectively. For the same compound, the IC50 in [6] came out at 1.06 µM; in data set [11] it was 1.14 µM. The outcome in data set [7] and in [10] was Active. The same compound came in with a bioavailability in [9] of 49.7%. This compound showed an IC50 at 72 h in [12] of 1.05 µM.
